The results in this text go back to ChEMBL document CHEMBL1201862, “PubChem BioAssay data set” (2004).

In assay [1] the target is Melanin-concentrating hormone receptor 1 (Homo sapiens, UniProt Q99705). In words: Late-stage fluorescence-based counterscreen for antagonists of the G-protein coupled receptor 7 (GPR7): cell-based dose response assay to identify antagonists of the melanin-concentrating hormone receptor 1 (MCHR1). [Related pubchem assays (depositor defined):AID1861, AID1880, AID1952, AID2148, AID2251, AID2257, AID485339]. Format: functional.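 Also: stimulated with 30 nM MCH peptide agonist.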
Melanin-concentrating hormone receptor 1, sequence (Q99705 whole entry): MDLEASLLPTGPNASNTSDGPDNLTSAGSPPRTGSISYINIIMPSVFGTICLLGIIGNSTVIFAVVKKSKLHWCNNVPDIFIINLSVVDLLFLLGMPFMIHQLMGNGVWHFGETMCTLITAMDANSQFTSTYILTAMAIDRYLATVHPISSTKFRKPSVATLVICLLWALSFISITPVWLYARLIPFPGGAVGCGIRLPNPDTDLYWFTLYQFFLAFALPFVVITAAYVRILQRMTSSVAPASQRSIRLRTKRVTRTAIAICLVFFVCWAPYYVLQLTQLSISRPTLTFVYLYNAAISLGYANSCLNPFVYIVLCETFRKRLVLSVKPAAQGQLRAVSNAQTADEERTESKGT

Assay [2] concerns the target T1, Eukaryotic translation initiation factor 2-alpha kinase 3 (Homo sapiens, UniProt Q9NZJ5). In words: Dose response cell-based high-throughput screening assay to measure PERK inhibition. [Related pubchem assays: 1416 ]. Format: functional.
Assay [3] addresses T1, Eukaryotic translation initiation factor 2-alpha kinase 3. In words: Counterscreen assay for PERK inhibitors: Dose response cell-based high throughput screening assay to measure inhibition of PERK at 6 hours. [Related pubchem assays: 1522, 1416 ]. The class given is functional.
Assay [4] can be described thus: CellTiter-Glo luminescence survival assay, SW480 colon tumor line, concentration-response curve, half-maximal inhibitory concentration (AID 1117338). Format: functional.
The test system of assay [5] is Streptococcus sp. 'group A'. In words: Streptococcus pyogenes SK(-)GAS viability under kanamycin – luminescence, BacTiterGlo, confirmation, counter-screen for streptokinase expression inhibitor project, dose response (AID 1900). The class given is functional, organism-based. A general note: The purpose of a counterscreen is to sort out artefacts and off-target activity.

In assay [6] the test system is Streptococcus. In words: GAS UMAA2166 growth inhibition – luminescence, BacTiterGlo, counter-screen for streptokinase expression inhibitor project, dose response (AID 1915).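 Also: potency for reduction of bacterial viability or growth.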 The class given is functional, organism-based.
The nature of assay [7]: RKO cell viability reduction, dose response, CellTiter-Glo luminescence (AID 1117322). Format: functional.
Assay [8] in a line: Reduced DLD-1 viability, concentration-response, CellTiter-Glo luminescence (AID 1117352). Format: functional. (ATP-based viability assays read luminescence as a measure of living cells.)
A short description of assay [9]: cytotoxicity toward Colo320 cells – cell-based, CellTiter-Glo luminescence, IC50, dose response (AID 1117334). Format: functional. The settings on record: COLO 320.
Assay [10] is described as follows: cytotoxicity toward HT-29 cells – cell-based, CellTiter-Glo luminescence, IC50, dose response (AID 1117330). The class given is functional.
Assay [11] deals with Envelope glycoprotein gp160 (Human immunodeficiency virus 1, UniProt Q6QLK5). Put plainly: cell-free HIV fusion peptide-binding blockers – biochemical, uHTS, fluorescence dequenching, […] (AID 1986).
Envelope glycoprotein gp160, sequence (Q6QLK5 whole entry, the tested form may be a part): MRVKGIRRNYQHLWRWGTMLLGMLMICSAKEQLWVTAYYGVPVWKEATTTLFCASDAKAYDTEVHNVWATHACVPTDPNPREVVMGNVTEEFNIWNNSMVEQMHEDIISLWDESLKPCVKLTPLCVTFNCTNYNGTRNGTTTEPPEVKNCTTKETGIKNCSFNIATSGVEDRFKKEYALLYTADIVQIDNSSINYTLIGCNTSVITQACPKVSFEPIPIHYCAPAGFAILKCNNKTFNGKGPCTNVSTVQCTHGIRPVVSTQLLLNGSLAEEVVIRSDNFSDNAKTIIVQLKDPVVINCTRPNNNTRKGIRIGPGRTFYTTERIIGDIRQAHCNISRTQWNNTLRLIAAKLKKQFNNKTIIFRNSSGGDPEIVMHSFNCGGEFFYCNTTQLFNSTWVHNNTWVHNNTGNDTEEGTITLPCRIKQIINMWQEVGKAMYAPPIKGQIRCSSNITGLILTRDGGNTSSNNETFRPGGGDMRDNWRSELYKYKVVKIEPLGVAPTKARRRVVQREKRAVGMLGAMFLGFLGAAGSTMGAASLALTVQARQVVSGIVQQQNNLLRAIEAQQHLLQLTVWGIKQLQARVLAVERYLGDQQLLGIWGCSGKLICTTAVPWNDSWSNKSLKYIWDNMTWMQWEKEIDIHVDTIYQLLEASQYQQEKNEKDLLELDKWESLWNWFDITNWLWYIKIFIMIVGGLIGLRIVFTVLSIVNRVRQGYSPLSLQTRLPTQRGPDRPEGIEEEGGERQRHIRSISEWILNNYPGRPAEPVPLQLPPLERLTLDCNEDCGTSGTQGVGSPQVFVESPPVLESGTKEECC
The nature of assay [12]: cytotoxicity toward HCT116 cells – cell-based, CellTiter-Glo luminescence, IC50, dose response (AID 1117332). The conditions noted are these: HCT-116. The class given is functional.
A short description of assay [13]: glucagon-like peptide-1 release potency in STC-1, concentration-response, half-maximal inhibitory concentration in the STC-1 line (AID 1117345). Format: functional, cell-based.
A short description of assay [14]: Potency on glucagon-like peptide 1 release, dose-response in NCI-H716 cell line, half maximal inhibitory concentration (AID 1117344). The class given is functional, cell-based.
Assay [15] is described as follows: CCR5-tropic HIV-1 fusion blockers – cell-based, CCR5-tropic Env, dose response (AID 2279). The class given is functional.
A short description of assay [16]: SNU-C1 cell viability reduction, dose response, CellTiter-Glo luminescence (AID 1117323). The class given is functional, cell-based.
For assay [17], the target named is Eukaryotic translation initiation factor 4H (Homo sapiens, UniProt Q15056). In words: eIF4H binding inhibition – biochemical, uHTS, fluorescence polarization, translation initiation inhibitor project, primary screen (AID 2012). On the technique in general: Polarisation of emitted light reports the rotation of a fluorescent probe.
The target in assay [18] is Polyadenylate-binding protein 1 (Homo sapiens, UniProt P11940). In words: blockers of PABP interaction with poly(A) – biochemical, fluorescence polarization, […] (AID 2014).
Polyadenylate-binding protein 1, sequence (P11940 whole entry): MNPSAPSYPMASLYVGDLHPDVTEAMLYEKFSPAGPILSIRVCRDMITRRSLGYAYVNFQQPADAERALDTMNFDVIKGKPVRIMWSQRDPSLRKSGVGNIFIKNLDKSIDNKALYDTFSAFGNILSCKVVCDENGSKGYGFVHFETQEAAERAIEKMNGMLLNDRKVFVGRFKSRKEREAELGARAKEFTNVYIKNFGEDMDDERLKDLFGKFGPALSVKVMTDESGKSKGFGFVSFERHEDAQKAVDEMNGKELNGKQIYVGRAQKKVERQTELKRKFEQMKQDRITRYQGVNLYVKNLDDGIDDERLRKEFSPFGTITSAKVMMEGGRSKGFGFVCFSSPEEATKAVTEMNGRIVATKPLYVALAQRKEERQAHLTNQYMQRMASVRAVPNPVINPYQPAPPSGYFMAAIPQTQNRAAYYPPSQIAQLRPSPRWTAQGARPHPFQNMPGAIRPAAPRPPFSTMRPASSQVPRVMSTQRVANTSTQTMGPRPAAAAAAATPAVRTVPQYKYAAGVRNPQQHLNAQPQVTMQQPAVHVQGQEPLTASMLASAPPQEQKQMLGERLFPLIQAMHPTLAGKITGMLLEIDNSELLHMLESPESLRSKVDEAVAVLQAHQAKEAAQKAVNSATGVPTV
Assay [19] in a line: Trypanosoma cruzi growth suppression in host cells – NIH3T3 host cells, beta-gal luminescence, confirmation (AID 2044).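 Also: intracellular parasites grown in NIH/3T3 mouse fibroblasts as host cells; luminescent beta-galactosidase reporter signal from transgenic T. cruzi replicating inside host cells; inhibitors lower the luminescence signal.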 The class given is functional, cell-based.
The target of assay [20] is Phosphomannomutase 2 (Homo sapiens, UniProt O15305). In words: Counter screen SAR assay for PMM2 inhibitors via a fluorescence intensity assay. [Related pubchem assays (depositor defined):AID1545, AID1574].
Phosphomannomutase 2, sequence (O15305 whole entry): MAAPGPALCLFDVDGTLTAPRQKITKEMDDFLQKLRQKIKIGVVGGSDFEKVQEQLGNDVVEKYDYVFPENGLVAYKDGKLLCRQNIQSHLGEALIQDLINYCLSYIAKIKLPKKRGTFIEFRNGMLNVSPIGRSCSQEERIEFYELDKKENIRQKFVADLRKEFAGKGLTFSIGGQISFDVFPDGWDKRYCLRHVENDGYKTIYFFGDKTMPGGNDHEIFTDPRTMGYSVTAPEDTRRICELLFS
In assay [21] the target is Eukaryotic translation initiation factor 4E (Mus musculus, UniProt P63073). In words: blockers of eIF4G binding by eIF4E – biochemical, TR-FRET, dose response (AID 855).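 Also: potency for disrupting eIF4E binding to eIF4GI seen as loss of FRET.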 The class given is functional.
Eukaryotic translation initiation factor 4E, sequence (P63073 whole entry): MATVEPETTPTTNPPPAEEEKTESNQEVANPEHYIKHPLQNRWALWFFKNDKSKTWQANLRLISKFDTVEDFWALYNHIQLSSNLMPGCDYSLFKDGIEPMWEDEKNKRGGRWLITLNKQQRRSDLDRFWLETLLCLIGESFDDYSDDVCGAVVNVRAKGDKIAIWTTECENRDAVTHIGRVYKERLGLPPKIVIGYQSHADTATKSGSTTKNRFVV
For assay [22], the target named is T2, Mannose-6-phosphate isomerase (Homo sapiens, UniProt P34949).
T2 sequence (P34949 whole entry): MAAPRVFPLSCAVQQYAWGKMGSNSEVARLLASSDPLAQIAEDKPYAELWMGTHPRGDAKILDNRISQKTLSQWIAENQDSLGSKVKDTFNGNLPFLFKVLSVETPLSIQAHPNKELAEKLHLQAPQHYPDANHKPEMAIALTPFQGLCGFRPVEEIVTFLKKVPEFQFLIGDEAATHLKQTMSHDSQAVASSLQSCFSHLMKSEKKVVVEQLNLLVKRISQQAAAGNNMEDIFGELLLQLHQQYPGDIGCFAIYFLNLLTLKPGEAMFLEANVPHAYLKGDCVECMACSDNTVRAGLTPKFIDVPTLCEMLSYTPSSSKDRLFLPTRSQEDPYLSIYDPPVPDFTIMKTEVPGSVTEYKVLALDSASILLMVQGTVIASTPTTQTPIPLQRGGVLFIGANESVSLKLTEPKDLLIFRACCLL
Put plainly: MPI enzyme activity inhibition – biochemical, fluorescence intensity, coupled assay, primary screen (AID 1209).

For assay [23], the target named is T2, Mannose-6-phosphate isomerase. Put plainly: phosphomannose isomerase inhibition – biochemical, fluorescence intensity, confirmation (AID 1535).
Assay [24] in a line: NIH3T3 cell viability loss – ATP luminescence, mouse fibroblasts, counter-screen, dose response (AID 2010).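 Also: cells exposed to compound for about 90 hours before reading.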 The class given is functional, cell-based.
For assay [25], the target named is DNA dC->dU-editing enzyme APOBEC-3G (Homo sapiens, UniProt Q9HC16). Put plainly: Dose Response confirmation of small molecule APOBEC3G DNA Deaminase Inhibitors via a fluorescence-based single-stranded DNA deaminase assay. [Related pubchem assays (depositor defined):AID493012, AID493028]. The class given is functional.
DNA dC->dU-editing enzyme APOBEC-3G, sequence (Q9HC16 whole entry): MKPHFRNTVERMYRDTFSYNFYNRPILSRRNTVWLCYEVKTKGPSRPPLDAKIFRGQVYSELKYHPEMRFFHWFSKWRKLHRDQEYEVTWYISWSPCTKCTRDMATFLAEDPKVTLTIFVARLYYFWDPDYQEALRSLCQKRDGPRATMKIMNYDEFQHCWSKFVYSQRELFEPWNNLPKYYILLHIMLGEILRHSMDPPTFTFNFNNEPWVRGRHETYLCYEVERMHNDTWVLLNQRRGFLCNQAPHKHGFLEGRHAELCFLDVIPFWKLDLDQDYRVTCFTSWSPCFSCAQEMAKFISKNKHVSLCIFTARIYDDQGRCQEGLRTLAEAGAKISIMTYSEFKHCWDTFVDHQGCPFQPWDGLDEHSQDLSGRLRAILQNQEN
Assay [26] in a line: DRD BJ cell killing, Ras synthetic lethality – DRD BJ fibroblasts, HRASV12, dry powder, dose response (AID 493049). Format: functional, cell-based.
Assay [27] can be described thus: BJeHLT cell viability loss – BJeHLT cells, dry powder, counter-screen for Ras selective lethality project, dose response (AID 493052). The conditions noted are these: Homo sapiens. The class given is functional, cell-based.
Assay [28] is described as follows: HRAS-V12 fibroblast viability reduction – cell-based, Alamar Blue, dry powder, Ras selective lethality project, primary screen (AID 493045). The class given is functional. The settings on record: BJeLR.
A short description of assay [29]: BJeH cell viability loss – BJeH cells, dry powder, counter-screen for Ras selective lethality project, dose response (AID 493054). The class given is functional, cell-based.

Calls of active or inactive are those of the source.

T1 sequence (Q9NZJ5 whole entry): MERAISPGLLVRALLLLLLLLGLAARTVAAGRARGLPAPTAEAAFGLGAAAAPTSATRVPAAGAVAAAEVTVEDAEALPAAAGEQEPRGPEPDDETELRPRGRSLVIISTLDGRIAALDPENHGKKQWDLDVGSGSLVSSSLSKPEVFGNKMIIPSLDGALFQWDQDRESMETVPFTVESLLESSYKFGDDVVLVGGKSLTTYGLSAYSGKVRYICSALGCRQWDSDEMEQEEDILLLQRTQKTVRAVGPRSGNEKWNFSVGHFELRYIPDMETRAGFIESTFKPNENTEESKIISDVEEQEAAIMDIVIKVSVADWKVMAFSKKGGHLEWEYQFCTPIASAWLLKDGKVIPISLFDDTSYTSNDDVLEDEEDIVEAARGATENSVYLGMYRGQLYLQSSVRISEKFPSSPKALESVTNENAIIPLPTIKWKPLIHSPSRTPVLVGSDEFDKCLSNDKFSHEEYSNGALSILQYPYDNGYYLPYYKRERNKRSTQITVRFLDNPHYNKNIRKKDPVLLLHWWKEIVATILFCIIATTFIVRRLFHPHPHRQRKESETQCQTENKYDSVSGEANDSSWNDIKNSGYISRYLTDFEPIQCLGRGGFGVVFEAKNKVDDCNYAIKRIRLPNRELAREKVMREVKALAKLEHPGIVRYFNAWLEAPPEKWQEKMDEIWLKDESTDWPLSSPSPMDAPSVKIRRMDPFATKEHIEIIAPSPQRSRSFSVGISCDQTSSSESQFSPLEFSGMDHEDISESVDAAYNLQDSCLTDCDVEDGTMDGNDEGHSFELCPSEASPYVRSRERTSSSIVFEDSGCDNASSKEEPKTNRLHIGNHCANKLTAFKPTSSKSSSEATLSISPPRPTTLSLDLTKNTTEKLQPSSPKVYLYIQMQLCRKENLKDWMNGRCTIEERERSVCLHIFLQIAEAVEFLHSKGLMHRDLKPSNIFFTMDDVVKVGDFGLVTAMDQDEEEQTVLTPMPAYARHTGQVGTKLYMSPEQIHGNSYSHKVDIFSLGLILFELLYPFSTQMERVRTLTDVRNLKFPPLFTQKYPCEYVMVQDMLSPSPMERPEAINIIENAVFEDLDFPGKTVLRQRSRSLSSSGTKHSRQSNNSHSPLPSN

Broadly, the IC50 is the point on the concentration scale where inhibition reaches its midpoint. Turning to `COc1ccc(Oc2c(Cl)cnn(Cc3ccc(C)cc3)c2=O)cc1`, the IC50 in [1] was 6.3 µM (active).
Broadly, the EC50 is the concentration that produces a half-maximal response. Regarding `Cc1c(O)n2c(nc1=O)sc1ccccc12`, the EC50 in assay [2] and in assay [3] was > 55.7 µM (not active) each time.
Take `O=C(Nc1ccc(Oc2ccc(Cl)cc2)c(Cl)c1)c1cc(I)cc(I)c1O` [RAFOXANIDE]: the IC50 is 0.0108 µM (active) in assay [4]; 0.0303 µM (active) in assay [7]; 0.0084 µM (active) in [8]; 0.054 µM (active) in assay [9]; 0.0095 µM (active) in assay [10]; 19.7 µM (active) in assay [11]. For the same compound, the IC50 in [12] is 0.0169 µM (active); in assay [13] it was 1.3 µM (active); in [14], > 40 µM (inactive); in assay [15] it was 7.36 µM (active); in assay [16], 0.0143 µM (active). Further, the figures for the EC50 in [5] and in assay [6] were 0.08 µM (active) and 0.137 µM (active), respectively.
As to `COc1ccc2[nH]c(O)c(N=NC(=O)Cc3cccs3)c2c1`, the IC50 is 11 µM (active) in assay [17] and 31 µM (active) in [18].
Take `COc1ccc2nc(N=C(S)N(C)C)sc2c1`: the results for the EC50 in assay [19] and in assay [24] were 2.03 µM (active) and > 60 µM (inconclusive), respectively. Also, the IC50 in assay [20] was > 100 µM (inactive); in assay [21], > 64 µM (inactive); in assay [22] it was 8.33 µM (active); in assay [23] it was 46.1 µM (active); in [25], 40.8 µM (active).
As a reminder, the AC50 is the concentration at which the activity in the assay is half-maximal. In the case of `COc1ccc(N(C(=O)CCl)C(C(=O)NCS(=O)(=O)c2ccc(C)cc2)c2cccs2)cc1Cl` (centres undefined), the AC50 in assay [26] was 0.083 µM (active); in assay [27], 0.208 µM (active); in assay [28] it was 0.089 µM (active); in [29], 0.347 µM (active).
